{
  "source": "paper PMC9287224",
  "about": "(Clinical Pharmacokinetics, 2022)",
  "key": {"[1]": {"conditions": "for reduction of the elimination rate: patients with Child C cirrhosis vs control subjects; for decrease of the elimination rate by liver cirrhosis: liver cirrhosis (Child class not stated) vs control subjects; for decrease in Cl/F: Child C cirrhosis compared with control subjects"}, "[2]": {"conditions": "monkeys; cited from earlier work"}, "CYP2C9": {"molecular_target": "CYP2C9 (Homo sapiens, UniProt P11712)", "sequence (P11712 whole entry)": "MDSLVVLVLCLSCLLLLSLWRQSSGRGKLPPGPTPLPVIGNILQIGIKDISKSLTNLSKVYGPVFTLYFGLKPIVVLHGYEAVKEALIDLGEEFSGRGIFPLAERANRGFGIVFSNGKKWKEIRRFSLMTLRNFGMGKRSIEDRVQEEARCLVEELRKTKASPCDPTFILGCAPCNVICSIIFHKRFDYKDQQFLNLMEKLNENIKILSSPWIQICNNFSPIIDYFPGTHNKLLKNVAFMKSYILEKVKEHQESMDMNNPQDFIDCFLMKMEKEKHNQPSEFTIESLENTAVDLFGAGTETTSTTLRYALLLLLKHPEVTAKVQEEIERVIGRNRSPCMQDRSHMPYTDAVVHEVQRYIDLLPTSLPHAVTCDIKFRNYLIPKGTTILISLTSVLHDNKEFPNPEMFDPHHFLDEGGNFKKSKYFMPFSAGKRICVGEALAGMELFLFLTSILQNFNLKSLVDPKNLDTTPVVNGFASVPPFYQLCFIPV", "conditions": "patients with Child C cirrhosis vs control subjects"}, "[3]": {"test": "Galactose elimination capacity", "format": "in vivo, human", "conditions": "patients with Child C cirrhosis"}},
  "note": "Counter-ions that a name gives are not always drawn.",
  "data": [
    {"smiles": "CC(C(=O)O)c1ccc(-c2ccc(O)cc2)c(F)c1", "note": "(stereo not shown) [4-Hydroxyflurbiprofen, 4-hydroxyflurbiprofen]", "values": [
      {"measurement": "increase in the AUC0–24h by liver cirrhosis", "setting": "[1]; liver cirrhosis vs control subjects (Child class not stated)", "value": 58, "unit": "%"}
    ]},
    {"smiles": "Cn1c(=O)c2c(ncn2C)n(C)c1=O", "note": "[Caffeine, caffeine]", "values": [
      {"measurement": "reduction of the elimination rate", "setting": "[1]", "value": 51, "unit": "%"}
    ]},
    {"smiles": "O=C1Nc2ccc(Cl)cc2[C@@](C#CC2CC2)(C(F)(F)F)O1", "note": "[Efavirenz, efavirenz]", "values": [
      {"measurement": "bioavailability", "setting": "[2]", "value": 42, "unit": "%"},
      {"measurement": "reduction of the elimination rate", "setting": "[1]", "value": 30, "unit": "%"}
    ]},
    {"smiles": "CC(C(=O)O)c1ccc(-c2ccccc2)c(F)c1", "note": "(stereo not shown) [Flurbiprofen, flurbiprofen]", "values": [
      {"measurement": "change of metabolic ratio 4-hydroxyflurbiprofen/flurbiprofen", "setting": "CYP2C9", "value": "remained unchanged"}
    ]},
    {"smiles": "O=C[C@H](O)[C@@H](O)[C@@H](O)[C@H](O)CO", "note": "[Galactose, galactose]", "values": [
      {"measurement": "galactose elimination capacity as % of controls (dropping to)", "setting": "[3]", "value": 18, "unit": "%"}
    ]},
    {"smiles": "COCCc1ccc(OCC(O)CNC(C)C)cc1", "note": "(stereo not shown) [Metoprolol, metoprolol tartrate]", "values": [
      {"measurement": "decrease of the elimination rate by liver cirrhosis", "setting": "[1]", "value": 37, "unit": "%"},
      {"measurement": "Cl/F as % of control subjects (dropped to)", "setting": "[1]; patients with Child C cirrhosis", "value": 22, "unit": "%"}
    ]},
    {"smiles": "Cc1ncc2n1-c1ccc(Cl)cc1C(c1ccccc1F)=NC2", "note": "[Midazolam, midazolam]", "values": [
      {"measurement": "decrease in Cl/F", "setting": "[1]", "value": 84, "unit": "%"},
      {"measurement": "ratio of the bioavailabilities Fcirrhosis Child C/Fcontrols", "setting": "[1]; assuming equal volume of distribution in cirrhosis and controls", "value": 1.73},
      {"measurement": "clearance", "setting": "[1]; human, in vivo, clearance corrected for bioavailability, controls", "value": "~1330", "unit": "mL/min"}
    ]},
    {"smiles": "COc1ccc2[nH]c([S+]([O-])Cc3ncc(C)c(OC)c3C)nc2c1", "note": "(stereo not shown) [Omeprazole, omeprazole]", "values": [
      {"measurement": "decrease in Cl/F", "setting": "[1]", "value": 91, "unit": "%"},
      {"measurement": "decrease of the elimination rate by liver cirrhosis", "setting": "[1]", "value": 75, "unit": "%"}
    ]}
  ]
}
